Experimental data reported in paper PMC7078782 (Drug Design, Development and Therapy, 2020).

Key:
[1] = Stock solution stability; format: physicochemical; settings: under the experimental conditions
[2] = Stability of QC samples in beagle plasma; format: in vitro ADME; settings: under the experimental conditions (room temperature, autosampler, freeze-thaw, −20°C)
[3] = cats; cited from earlier work
[4] = Pharmacokinetic study in beagles after intramuscular injection of parecoxib; settings: beagle, dog, plasma, im, 1.33 mg/kg, after intramuscular injection of 1.33 mg/kg parecoxib, n=6, mean ± SD
[5] = liver; cited from earlier work

Stock solution stability (in words) [1] | Stability in beagle plasma (in words) [2] | Tmax ([4]; Tmax, beagle plasma) [h] | half-life ([4]; t1/2, beagle plasma) [h] | Structure (SMILES) | t1/2 of conversion to valdecoxib and propionic acid [3] | Share of elimination by sulfonamide glucose hydroformylation [5]
stabilized | – | – | – | Cc1ccc(-c2cc(C(F)(F)F)nn2-c2ccc(S(N)(=O)=O)cc2)cc1 [IS, Celecoxib] | – | –
stabilized | stable | – | – | CCC(=O)NS(=O)(=O)c1ccc(-c2c(-c3ccccc3)noc2C)cc1 [Parecoxib] | about 24 mins | –
stabilized | stable | ~1.36 | ~2.27 | Cc1onc(-c2ccccc2)c1-c1ccc(S(N)(=O)=O)cc1 [Valdecoxib] | – | about 20%
